# Measured values from ChEMBL document CHEMBL4368907 (J Med Chem, 2019).
# Active and inactive are the calls of the source. No cut-off for these calls is given here. Numbered stars: 1 amine (or outer) side, 2 acyl side, 3 side chain; on linkers, the order of the positions; unused ones are H or OH. Square brackets hold non-standard residues; d marks the D form. Side chains are listed from the residue outwards. Peptide text beside a SMILES is read from it. * marks the point of attachment. sY = N[C@@H](Cc1ccc(OS(=O)(=O)O)cc1)C(=O)O; C18 diacid = O=C(O)CCCCCCCCCCCCCCCCC(=O)*; NMe1Nal = CN[C@@H](Cc1cccc2ccccc12)C(=O)O; γGlu = O=C(O)[C@H](CCC(=O)[*:2])N[*:1]; 1Nal = N[C@@H](Cc1cccc2ccccc12)C(=O)O; NMeF = CN[C@@H](Cc1ccccc1)C(=O)O; NMeD = CN[C@@H](CC(=O)O)C(=O)O; dNMeD = CN[C@H](CC(=O)O)C(=O)O; Nle = CCCC[C@H](N)C(=O)O; X1 = O=C(Cc1ccc(O)cc1)*; AEEA = NCCOCCOCC(=O)O
# What was measured:
# [1] = molecular target: T1, Cholecystokinin receptor type A (Homo sapiens, UniProt P32238); assay: (§1) Displacement of [125I]-CCK-8 from human CCK1R expressed in human 1321N1 cell membranes after 2 hrs by SPA assay
# T1 sequence (P32238 whole entry): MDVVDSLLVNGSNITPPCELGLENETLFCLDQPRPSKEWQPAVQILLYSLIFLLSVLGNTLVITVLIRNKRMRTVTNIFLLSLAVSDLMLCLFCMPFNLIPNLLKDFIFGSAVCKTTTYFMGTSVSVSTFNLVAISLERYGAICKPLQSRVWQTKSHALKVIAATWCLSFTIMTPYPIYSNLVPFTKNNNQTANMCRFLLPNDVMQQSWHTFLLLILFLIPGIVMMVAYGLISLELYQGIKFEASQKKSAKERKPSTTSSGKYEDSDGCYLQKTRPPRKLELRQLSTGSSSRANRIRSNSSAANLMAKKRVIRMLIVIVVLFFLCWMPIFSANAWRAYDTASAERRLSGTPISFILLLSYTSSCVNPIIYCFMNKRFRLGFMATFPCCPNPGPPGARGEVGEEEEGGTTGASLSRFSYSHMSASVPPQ
# [2] = molecular target: T2, Gastrin/cholecystokinin type B receptor (Homo sapiens, UniProt P32239); assay: (§2) Displacement of [125I]-CCK-8 from human CCK2R expressed in human 1321N1 cell membranes after 2 hrs by SPA assay
# T2 sequence (P32239 whole entry): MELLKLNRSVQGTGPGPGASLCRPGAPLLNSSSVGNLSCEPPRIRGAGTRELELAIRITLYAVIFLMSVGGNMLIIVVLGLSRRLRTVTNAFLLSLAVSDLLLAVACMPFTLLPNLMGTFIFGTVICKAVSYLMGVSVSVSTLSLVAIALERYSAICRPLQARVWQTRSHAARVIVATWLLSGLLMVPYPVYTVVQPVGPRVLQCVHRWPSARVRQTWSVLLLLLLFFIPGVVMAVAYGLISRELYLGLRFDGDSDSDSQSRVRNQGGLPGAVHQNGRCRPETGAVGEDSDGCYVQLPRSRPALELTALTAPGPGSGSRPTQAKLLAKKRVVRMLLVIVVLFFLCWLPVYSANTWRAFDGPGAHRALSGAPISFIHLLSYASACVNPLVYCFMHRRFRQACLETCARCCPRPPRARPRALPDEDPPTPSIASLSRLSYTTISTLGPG
# [3] = molecular target: T1, Cholecystokinin receptor type A; assay: (§3) Agonist activity at human CCK1R expressed in human 1321N1 cells assessed as IP1 accumulation after 1 hr by HTRF assay; assay type: functional, cell-based
# [4] = molecular target: T2, Gastrin/cholecystokinin type B receptor; assay: (§4) Agonist activity at human CCK2R expressed in human 1321N1 cells assessed as IP1 accumulation after 1 hr by HTRF assay; assay type: functional, cell-based
# [5] = Terminal half life in Ellegaard Gottingen minipig at 5 nmol/kg, iv by LC-MS/MS analysis; assay type: ADME, organism-based, Sus scrofa; details: pig, in vivo, read-out: beta t1/2 (converted)
# [6] = Plasma concentration in lean Landrace Yorkshire Duroc pig at 30 nmol/kg, sc measured after 96 hrs post dose; assay type: ADME, organism-based, Sus scrofa
# [7] = Toxicity in lean Landrace Yorkshire Duroc pig at 30 nmol/kg, sc measured up to 96 hrs post dose; assay type: organism-based, Sus scrofa; details: in vivo
# [8] = tested on: Sus scrofa; assay: Anti-obesity activity in lean Landrace Yorkshire Duroc pig assessed as food intake at 30 nmol/kg, sc measured up to 24 hrs post dose (reference value: 1.8 to 2.1 kg); assay type: functional
# [9] = tested on: Sus scrofa; assay: Anti-obesity activity in lean Landrace Yorkshire Duroc pig assessed as food intake at 30 nmol/kg, sc measured at 24 to 48 hrs post dose (reference value: 1.8 to 2.1 kg); assay type: functional
# [10] = tested on: Sus scrofa; assay: Anti-obesity activity in lean Landrace Yorkshire Duroc pig assessed as food intake at 30 nmol/kg, sc measured at 48 to 72 hrs post dose (reference value: 1.8 to 2.1 kg); assay type: functional
# [11] = tested on: Sus scrofa; assay: Anti-obesity activity in lean Landrace Yorkshire Duroc pig assessed as food intake at 30 nmol/kg, sc measured at 72 to 96 hrs post dose (reference value: 1.8 to 2.1 kg); assay type: functional
# [12] = molecular target: T3, Cholecystokinin receptor type A (Homo sapiens) (UniProt P32238); assay: as §1
# T3 sequence (whole entry): T1 sequence (P32238 whole entry)
# [13] = molecular target: T4, Gastrin/cholecystokinin type B receptor (Homo sapiens) (UniProt P32239); assay: as §2
# T4 sequence (whole entry): T2 sequence (P32239 whole entry)
# [14] = molecular target: T3, Cholecystokinin receptor type A (Homo sapiens); assay: as §3; assay type: functional, cell-based
# [15] = molecular target: T4, Gastrin/cholecystokinin type B receptor (Homo sapiens); assay: as §4; assay type: functional, cell-based
Structure (SMILES),pIC50 [12],pIC50 [13],pEC50 [14],pEC50 [15],other results
CCCC[C@H](NC(=O)[C@H](Cc1c[nH]c2ccccc12)NC(=O)CNC(=O)[C@H](CC(C)C)NC(=O)[C@H](Cc1ccc(O)cc1)NC(=O)[C@H](CC(=O)O)NC(=O)COCCOCCNC(=O)COCCOCCNC(=O)CC[C@H](NC(=O)CCCCCCCCCCCCCCCCC(=O)O)C(=O)O)C(=O)N(C)[C@@H](CC(=O)O)C(=O)N(C)[C@@H](Cc1ccccc1)C(N)=O [listing 1 of 2 here],–,–,–,–,pIC50 [1]: 8.99; pIC50 [2]: 5.31; pEC50 [3]: 9.81; pEC50 [4]: < 6; half-life [5]: 1.88 days; concentration at 96 h [6]: 8.5 nM; Activity [7]: Non-Toxic
CCCC[C@H](NC(=O)[C@H](Cc1c[nH]c2ccccc12)NC(=O)CNC(=O)[C@H](CC(C)C)NC(=O)[C@H](Cc1ccc(O)cc1)NC(=O)[C@H](CC(=O)O)NC(=O)COCCOCCNC(=O)COCCOCCNC(=O)CC[C@H](NC(=O)CCCCCCCCCCCCCCCCC(=O)O)C(=O)O)C(=O)N(C)[C@@H](CC(=O)O)C(=O)N(C)[C@@H](Cc1ccccc1)C(N)=O [listing 2 of 2 here],–,–,–,–,Activity [8]: 2.3 kg; Activity [9]: 2.2 kg; Activity [10]: 2.6 kg; Activity [11]: 2.3 kg
CCCC[C@H](NC(=O)[C@H](Cc1ccc(CS(=O)(=O)O)cc1)NC(=O)[C@H](CC(=O)O)NC(=O)COCCOCCNC(=O)COCCOCCNC(=O)CC[C@H](NC(=O)CCCCCCCCCCCCCCCCC(=O)O)C(=O)O)C(=O)NCC(=O)N[C@@H](Cc1c[nH]c2ccccc12)C(=O)N[C@@H](CCCC)C(=O)N(C)[C@H](CC(=O)O)C(=O)N(C)[C@@H](Cc1ccccc1)C(=O)O,inactive,inactive,inactive,inactive,–
CCCC[C@H](NC(=O)[C@H](Cc1ccc(OS(=O)(=O)O)cc1)NC(=O)[C@H](CC(=O)O)NC(=O)COCCOCCNC(=O)COCCOCCNC(=O)CC[C@H](NC(=O)CCCCCCCCCCCCCCCCC(=O)O)C(=O)O)C(=O)NCC(=O)N[C@@H](Cc1c[nH]c2ccccc12)C(=O)N[C@@H](CC(C)C)C(=O)N[C@@H](CC(=O)O)C(=O)N[C@@H](Cc1ccccc1)C(N)=O,Active,Active,Active,Active,–
CCCC[C@H](NC(=O)[C@H](Cc1c[nH]c2ccccc12)NC(=O)CNC(=O)[C@H](CCCCNC(=O)COCCOCCNC(=O)COCCOCCNC(=O)CC[C@H](NC(=O)CCCCCCCCCCCCCCCCC(=O)O)C(=O)O)NC(=O)Cc1ccc(O)cc1)C(=O)N(C)[C@@H](CC(=O)O)C(=O)N(C)[C@@H](Cc1ccccc1)C(N)=O (X1-K([AEEA-AEEA-γGlu-C18 diacid])GW[Nle][NMeD][NMeF]-NH2),–,–,–,–,Activity [8]: 2.1 kg; Activity [9]: 2.2 kg; Activity [10]: 2.1 kg; Activity [11]: 2.4 kg
CCCC[C@H](NC(=O)[C@H](Cc1c[nH]c2ccccc12)NC(=O)CNC(=O)[C@H](CC(C)C)NC(=O)[C@H](Cc1ccc(OS(=O)(=O)O)cc1)NC(=O)[C@H](CC(=O)O)NC(=O)COCCOCCNC(=O)COCCOCCNC(=O)CC[C@H](NC(=O)CCCCCCCCCCCCCCCCC(=O)O)C(=O)O)C(=O)N(C)[C@H](CC(=O)O)C(=O)N(C)[C@@H](Cc1cccc2ccccc12)C(N)=O ({C18 diacid-γGlu-AEEA-AEEA}-D[sY]LGW[Nle][dNMeD][NMe1Nal]-NH2),–,–,–,–,IC50 [2]: 2040 nM; EC50 [3]: 0.407 nM; EC50 [4]: 151 nM; half-life [5]: 6.12 days
CCCC[C@H](NC(=O)[C@H](Cc1ccc(OS(=O)(=O)O)cc1)NC(=O)[C@H](CC(=O)O)NC(=O)COCCOCCNC(=O)COCCOCCNC(=O)CC[C@H](NC(=O)CCCCCCCCCCCCCCCCC(=O)O)C(=O)O)C(=O)NCC(=O)N[C@@H](Cc1c[nH]c2ccccc12)C(=O)N[C@@H](C)C(=O)N[C@@H](CC(=O)O)C(=O)N[C@@H](Cc1ccccc1)C(N)=O ({C18 diacid-γGlu-AEEA-AEEA}-D[sY][Nle]GWADF-NH2),inactive,inactive,inactive,inactive,–
CCCC[C@H](NC(=O)[C@H](Cc1ccc(OS(=O)(=O)O)cc1)NC(=O)[C@H](CC(=O)O)NC(=O)COCCOCCNC(=O)COCCOCCNC(=O)CC[C@H](NC(=O)CCCCCCCCCCCCCCCCC(=O)O)C(=O)O)C(=O)NCC(=O)N[C@@H](Cc1c[nH]c2ccccc12)C(=O)N[C@@H](CCC(=O)O)C(=O)N[C@@H](CC(=O)O)C(=O)N[C@@H](Cc1ccccc1)C(N)=O ({C18 diacid-γGlu-AEEA-AEEA}-D[sY][Nle]GWEDF-NH2),inactive,inactive,inactive,inactive,–
CCCC[C@H](NC(=O)[C@H](Cc1ccc(OS(=O)(=O)O)cc1)NC(=O)[C@H](CC(=O)O)NC(=O)COCCOCCNC(=O)COCCOCCNC(=O)CC[C@H](NC(=O)CCCCCCCCCCCCCCCCC(=O)O)C(=O)O)C(=O)NCC(=O)N[C@@H](Cc1c[nH]c2ccccc12)C(=O)N[C@@H](Cc1ccccc1)C(=O)N[C@@H](CC(=O)O)C(=O)N[C@@H](Cc1ccccc1)C(N)=O ({C18 diacid-γGlu-AEEA-AEEA}-D[sY][Nle]GWFDF-NH2),inactive,inactive,inactive,inactive,–
CCCC[C@H](NC(=O)[C@H](Cc1ccc(OS(=O)(=O)O)cc1)NC(=O)[C@H](CC(=O)O)NC(=O)COCCOCCNC(=O)COCCOCCNC(=O)CC[C@H](NC(=O)CCCCCCCCCCCCCCCCC(=O)O)C(=O)O)C(=O)NCC(=O)N[C@@H](Cc1c[nH]c2ccccc12)C(=O)N[C@@H](CCCCN)C(=O)N[C@@H](CC(=O)O)C(=O)N[C@@H](Cc1ccccc1)C(N)=O ({C18 diacid-γGlu-AEEA-AEEA}-D[sY][Nle]GWKDF-NH2),inactive,inactive,inactive,inactive,–
CCCC[C@H](NC(=O)[C@H](Cc1ccc(OS(=O)(=O)O)cc1)NC(=O)[C@H](CC(=O)O)NC(=O)COCCOCCNC(=O)COCCOCCNC(=O)CC[C@H](NC(=O)CCCCCCCCCCCCCCCCC(=O)O)C(=O)O)C(=O)NCC(=O)N[C@@H](Cc1c[nH]c2ccccc12)C(=O)N[C@@H](CO)C(=O)N[C@@H](CC(=O)O)C(=O)N[C@@H](Cc1ccccc1)C(N)=O ({C18 diacid-γGlu-AEEA-AEEA}-D[sY][Nle]GWSDF-NH2),inactive,inactive,inactive,inactive,–
CCCC[C@H](NC(=O)[C@H](Cc1ccc(OS(=O)(=O)O)cc1)NC(=O)[C@H](CC(=O)O)NC(=O)COCCOCCNC(=O)COCCOCCNC(=O)CC[C@H](NC(=O)CCCCCCCCCCCCCCCCC(=O)O)C(=O)O)C(=O)NCC(=O)N[C@@H](Cc1c[nH]c2ccccc12)C(=O)N[C@@H](CCCC)C(=O)N(C)[C@H](CC(=O)O)C(=O)N[C@@H](Cc1cccc2ccccc12)C(N)=O ({C18 diacid-γGlu-AEEA-AEEA}-D[sY][Nle]GW[Nle][dNMeD][1Nal]-NH2),–,–,–,–,IC50 [1]: 0.0741 nM; EC50 [3]: 0.363 nM; EC50 [4]: 89.1 nM; half-life [5]: 5.83 days
